The values below come from US9060541B2, “Sterilizer for foods” (Kawakami Co., Ltd., priority 2009, dated 2015).

Read-outs that look alike come from different tables or passages of the source.

What all share (type): cell-based
Design in all cases: key: D: There is no sterilization effect.; C: There is a sterilization effect in step (1) but no sterilization effect in step (2).; B: There is a sterilization effect up to step (2) but no sterilization effect in step (3).; A: There is a sterilization effect up to step (3)

The test system of experiment [1] is Shigella flexneri subtype 1b KX-H273. In words: Comparison test of sterilization effects against various food poisoning microbes.
Experiment [2] concerns Vibrio cholerae non-O1 non-O139 KX-N105.
In the next experiment the test system is Escherichia coli (NIHJ). In words: Sterilization effect determination test (Fujimoto's modified method of the Kelsey-Sykes method). The settings on record: Table 1; compositions of calcinated calcium and ethanol, water remainder; 20° C.; steps (1)-(3); listed as Ethanol 30 wt %.
The subject of experiment [3] is Staphylococcus aureus (209P). The experiment is described as above. The settings on record: Table 2; compositions of calcinated calcium and ethanol, water remainder; 20° C.; steps (1)-(3); listed as Ethanol 30 wt %.
For another experiment, the system named is Aeromonas sobria KX-A435. In words: Comparison test of sterilization effects against various food poisoning microbes.
[4] abbreviates: Table 7, test microbe solution without yeast extract.
Where [5] appears, read: Table 8, yeast extract 4 weight % blended in test microbe solution.

Take `CCO` [EtOH 30%, ethanol]: the Sterilization effect entry in experiment [1] (setting [4]) is on record as “C”; in experiment [1] (setting [5]), “D”; in experiment [2] (setting [4]) it was “C”; in experiment [2] (setting [5]) it was “C”; in the experiment on Escherichia coli (NIHJ) it was “C”; in experiment [3], “D”. Besides, the Sterilization effect entry is “B” in the experiment on Aeromonas sobria KX-A435 (setting [4]) and “C” in the experiment with Aeromonas sobria KX-A435 (setting [5]).
Take `[Na+].[O-]Cl` [S.H 150 ppm, sodium hypochlorite]: the Sterilization effect entry in experiment [1] (setting [4]) is reported as “A”; in experiment [1] (setting [5]), “D”; in experiment [2] (setting [4]) it was “A”; in experiment [2] (setting [5]), “D”; in the experiment with Aeromonas sobria KX-A435 (setting [4]), “A”; in the experiment with Aeromonas sobria KX-A435 (setting [5]), “D”.
